Laboratory results: patent US9993494B2, “Compositions and methods for treating fibrotic disease” (eFFECTOR Therapeutics, Inc., priority 2014, dated 2018)

How the values were obtained:
[1] = test system: normal human lung fibroblasts; assay: Western blot of α-smooth muscle actin (α-SMA) in TGFβ-treated fibroblasts; type: cell-based; details: fibroblasts treated with TGFβ, 24 hours, western blot
Protocol: (§1) Briefly, normal human lung fibroblasts (Lonza #CC-2512; cell passage numbers 2 through 5 were used for all experiments) were seeded (Day 0) and cultured in Dulbecco's modified Eagle medium (DMEM) supplemented with 10% fetal bovine serum (FBS), penicillin, streptomycin and glutamax (Invitrogen) at 37° C. in a humidified incubator with 5% CO2 overnight. On Day 1, cells were harvested, washed with phosphate buffered saline (PBS), and then incubated for 48 hours in fresh serum-free DMEM supplemented with penicillin, streptomycin, and glutamax.
(§2) After this 24 hour incubation, procollagen type 1 levels were measured by collecting culture media, centrifuging to pellet cellular debris, and stored at −80° C. Procollagen Type 1 C-Peptide (PIPC) was quantified using the (PIP) EIA kit (Clontech, Cat. No. MK101) according to manufacturer's instructions. The TGFβ-treated fibroblasts of this example were examined by ribosomal profiling (about 6×10^6 cells/10 cm plate) and western blot analysis (about 1×10^6 cells/well of a 6-well plate).
TGFβ-dependent activation of the PI3K/Akt/mTOR and ERK pathways were also examined by western blot analysis (about 1×10^6 cells/well from a 6-well plate). Briefly, cells were washed with PBS and lysed in 1× cell lysis buffer (Cell Signaling Technology, Inc., Danvers, Mass.) for 15 minutes at 4° C. Lysates were briefly sonicated, clarified by centrifugation for 15 minutes at 14,000 rpm, and then supernatants were collected. Protein concentration in the soluble fraction was determined by BCA protein assay (Thermo Scientific, Rockford, Ill.). Samples of protein (20 μg) were resolved on 4-20% Bis-Tris gradient gel (Invitrogen, Carlsbad, Calif.) and transferred to nitrocellulose membrane. The resulting blots were blocked for 1 hour at room temperature with Odyssey blocking solution (LI-COR) and then incubated with primary antibodies at 4° C. overnight. The following day, each blot was washed three times for 10 minutes in TBST, and then incubated with goat anti-rabbit fluorescent conjugated secondary antibody (IRDye 800 CW at 1:20,000; LI-COR) for 1 hour at room temperature. The blots were washed and scanned, and then specific proteins were detected by using the LI-COR Odyssey infrared imager. The following antibodies were used at 1:1000 dilution: anti-α-actin (Sigma #A2547), anti-phospho-4EBP(Ser65), anti-phospho-rpS6(Ser235/236)(#4858), anti-phospho-ERK1/2(Thr202/Tyr204)(#4370), anti-phospho-p70S6K(Thr421/Ser424)(#9204), anti-phospho-pAKT(Ser473), anti-phospho-MNK(Thr197/202), and anti-β-actin (#4970). Unless otherwise indicated, the antibodies were from Cell Signaling Technology, Inc. (Danvers, Mass.).
as §1, with “(Lonza;” for “(Lonza #CC-2512;”, “CO2 conditions” for “CO2”, “glutamax. On Day 3, cells were harvested, resuspended in fresh serum-free DMEM containing silvestrol (1, 5, 10, 75, 100, 500, or 1000 nM) and 10 ng/ml TGFβ, and cultured for 24 hours. Controls included untreated cells and cells treated with only TGFβ.” for “glutamax.”
as §2, with “kit (Clontech)” for “kit (Clontech, Cat. No. MK101)”, “example are” for “example were”

[2] = test system: normal human lung fibroblasts; assay: Procollagen Type 1 C-Peptide (PIPC) EIA in culture media of TGFβ-treated fibroblasts; type: cell-based; details: fibroblasts treated with TGFβ, 24 hours, procollagen ELISA
Protocol: as §1, §2
as §1, with “(Lonza;” for “(Lonza #CC-2512;”, “CO2 conditions” for “CO2”, “glutamax. On Day 3, cells were harvested, resuspended in fresh serum-free DMEM containing silvestrol (1, 5, 10, 75, 100, 500, or 1000 nM) and 10 ng/ml TGFβ, and cultured for 24 hours. Controls included untreated cells and cells treated with only TGFβ.” for “glutamax.”
as §2, with “kit (Clontech)” for “kit (Clontech, Cat. No. MK101)”, “example are” for “example were”
The levels of α-SMA and procollagen type 1, markers of fibroblast transdifferentiation into myofibroblasts and a surrogate for fibrotic disease progression, were measured after a 24 hour incubation of fibroblasts in the presence or absence of TGFβ sieIF4A1 or siCont. The knockdown efficiency was determined by quantitating the eIF4A mRNA level by qPCR (data not shown) and assessing the protein level by western analysis (see FIG. 11).

SMILES | % Renormalization α-SMA [1] | % Renormalization Collagen [2]
COC(=O)c1ccc2c(c1)NC(=O)/C2=C(\Nc1ccc(N(C)C(=O)CN2CCN(C)CC2)cc1)c1ccccc1 [Nintedanib] | +++ (+++ = >60%) | +++ (+++ = >60%)
N=C(N)NCCCCCCCN [GC7, N1-guanyl-1,7-diaminoheptane] | + (+ = 0-30%) | + (+ = 0-30%)
CO[C@H]1C[C@@H]2CC[C@@H](C)[C@@](O)(O2)C(=O)C(=O)N2CCCC[C@H]2C(=O)O[C@H]([C@H](C)C[C@@H]2CC[C@@H](O)[C@H](OC)C2)CC(=O)[C@H](C)/C=C(\C)[C@@H](O)[C@@H](OC)C(=O)[C@H](C)C[C@H](C)/C=C/C=C/C=C/1C [Rapamycin] | + (+ = 0-30%) | ++ (++ = 30-60%)
